Marks after values point to notes of the source that are not given here.
How the values were obtained:
[1] = In vivo piglet test: growth performance (weight gain, feed consumption) D0 to D42 post-weaning; parameters: species or system piglets (Danbred×Duroc); settings: for Daily weight gain: Overall period D0 to D42
Procedure: The effect of the premix of the invention on the performance and health of piglets in the post-weaning pre-starter stage (0-14 days post-weaning) was evaluated and compared to a standard oxide.
The use of the product of the invention ZnO—MgO was compared with standard zinc oxide at nutritional dose as well as at pharmacological dose in the contents indicated in Table 3.
Piglet weight was measured from D0 to D42 post-weaning in order to record daily weight gain and total weight at the end of the test. Feed consumption of each animal was also recorded each day of the test and recorded as an average to assess the feed conversion ratio (FCR). The FCR corresponds to the conversion index CI. It is equal to the average daily consumption reported to the average daily weight gain. The mean values+/−the standard deviation are presented per treatment.

[2] = in vivo
Source text: Each piglet is tagged, weighed and allocated in groups of 8 piglets per pen.
Analyses of the faeces after 14 days of use of the different treatments allowed to assess the amount of zinc not used by the animal and thus released into the soil, contributing to pollution.

Caco2 cells = settings: Caco-2
[3] = Control Negative: ZnO 150 ppm additive (120 ppm zinc)
[4] = Control Positive: ZnO 3261 ppm additive (2620 ppm zinc)
[5] = Pre-starter phase D0 to D14, Control Negative: ZnO 150 ppm additive (120 ppm zinc)
[6] = Pre-starter phase D0 to D14, Control Positive: ZnO 3261 ppm additive (2620 ppm zinc)

## [O]=[Zn] [Control, ZnO]
[1]; [3]
  Live weight Day 0: 6.75 kg
  Live weight Day 14: 9.61^b kg
  Live weight Day 42: 26.15^ab kg
  Daily weight gain: 0.463^ab kg/day
[1]; [4]
  Live weight Day 0: 6.74 kg
  Live weight Day 14: 10.01^ab kg
  Live weight Day 42: 25.33^b kg
  Daily weight gain: 0.444^b kg/day
[1]; [5]
  Average daily feed consumption: 0.380 kg/day
  Average daily weight gain: 0.205^b kg/day
  Feed conversion ratio: 1.863^a kg/kg
[1]; [6]
  Average daily feed consumption: 0.395 kg/day
  Average daily weight gain: 0.233^ab kg/day
  Feed conversion ratio: 1.705^b kg/kg
[1]; Starter phase D15 to D42, Control Negative: ZnO 150 ppm additive (120 ppm zinc)
  Average daily weight gain: 0.611^ab kg/day
[1]; Starter phase D15 to D42, Control Positive: ZnO 3261 ppm additive (2620 ppm zinc)
  Average daily weight gain: 0.571^b kg/day
[2]
  zinc content measured in the feces: 925 ppm

## ZnO—MgO [Premix of the invention MgO—ZnO]
Caco2 cells
  Total Zn absorbed on cell: 1.89 mg/L

From patent US20260174797A1, “MAGNESIUM AND TRACE ELEMENT OXIDE PREMIX FOR ANIMAL NUTRITIONAL SUPPLEMENTATION, AND MANUFACTURING METHOD” (TIMAB MAGNESIUM, priority 2022, published 2026)
